Target: T1, LPA1 (Homo sapiens, UniProt Q92633)
T1 construct: ProLink (β-galactosidase enzyme-donor fragment); host or cells: CHO-K1 (PathHunter EDG2 β-Arrestin cell line)
Assay: LPA1 calcium flux assay (LPA1 functional antagonist assay)
Assay type: cell-based
Settings: PathHunter CHO-K1 EDG2 β-Arrestin cells, calcium indicator dye, stimulated with EC80 concentration of LPA, FLIPR
Experimental: The effectiveness of compounds of the present invention as LPA1 inhibitors can be determined in an LPA1 functional antagonist assay as follows.
PathHunter® CHO-K1 EDG2 β-Arrestin Cell Line (Eurofins DiscoverX Corporation, Cat #93-0644C2) were plated overnight (11,500 cells/well) in poly-D-lysine coated 384-well microplates (Corning, Cat #356697) in AssayComplete™ Cell Plating 35 Reagent (Eurofins DiscoverX Corporation, Cat #93-0563R35). Following overnight culture, cells were loaded with calcium indicator dye from the HitHunter Calcium No WashPLUS Assay kit (Eurofins DiscoverX Corporation, Cat #93-0091) for 45 minutes at 37° C. Test compounds solubilized in DMSO (Sigma, Cat #276855) on 384-well polypropylene microplates (Greiner bio-one, Cat #781280) were then diluted to intermediate concentration with assay buffer [1×HBSS calcium/magnesium (Corning, Cat #21-023-CM) and 20 mM HEPES (Corning, Cat #25-060-Cl)] before addition to cells by Agilent Velocity 11 with a final concentration of 0.4% DMSO. After compound addition, assay plates were equilibrated to room temperature for 30 minutes. Cells were then stimulated by addition of EC80 concentration of LPA (Cat #, 10010093) in assay buffer containing [1×HBSS calcium/magnesium (Corning, Cat #21-023-CM), 20 mM HEPES (Corning, Cat #25-060-Cl), and 0.1% BSA (Sigma, Cat #A8806)] using Molecular Devices FLIPR Tetra PLUS®. IC50 values were determined by Chemical and Biological Information System from ChemInnovation Software, Inc.
The compounds of this invention were tested for their activity to inhibit LPA1 as determined in an LPA1 functional antagonist assay as described herein.

T1 sequence (Q92633 whole entry, the tested form may be a part): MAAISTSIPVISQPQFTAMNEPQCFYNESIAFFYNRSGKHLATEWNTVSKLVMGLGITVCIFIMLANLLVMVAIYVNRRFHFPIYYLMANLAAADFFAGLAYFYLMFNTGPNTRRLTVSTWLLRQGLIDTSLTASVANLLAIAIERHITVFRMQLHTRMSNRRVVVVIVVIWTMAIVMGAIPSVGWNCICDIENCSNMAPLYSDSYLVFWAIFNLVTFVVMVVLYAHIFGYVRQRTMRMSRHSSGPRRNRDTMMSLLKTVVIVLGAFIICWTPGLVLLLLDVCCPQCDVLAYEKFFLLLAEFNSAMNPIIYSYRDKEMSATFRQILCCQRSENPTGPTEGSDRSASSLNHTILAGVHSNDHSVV

Row | SMILES | IC50 [µM]
1 | CCCc1ccc(=O)n(Cc2c(-c3ccc(N4CC[C@@H](C(CC)C(=O)O)C4)c(CC)n3)nnn2C)c1 (single isomer, unassigned) [Example 17, (S) or (R)-2-((S)-1-(2-ethyl-6-(1-methyl-5-((2-oxo-5-propylpyridin-1(2H)-yl)methyl)-1H-1,2,3-triazol-4-yl)pyridin-3-yl)pyrrolidin-3-yl)butanoic acid] | 0.5 to 5
2 | CCCc1ccc(=O)n(Cc2c(-c3ccc(N4CC[C@@H](C(CC)C(=O)O)C4)c(CC)n3)nnn2C)c1 (single isomer, unassigned) [Example 18, (R) or (S)-2-((S)-1-(2-ethyl-6-(1-methyl-5-((2-oxo-5-propylpyridin-1(2H)-yl)methyl)-1H-1,2,3-triazol-4-yl)pyridin-3-yl)pyrrolidin-3-yl)butanoic acid] | 5 to 10000
3 | CCCN(C)C(=O)OCc1c(-c2ccc(N3CC[C@@H](C(CC)C(=O)O)C3)c(CC)n2)nnn1C (single isomer, unassigned) [Example 19, (S) or (R)-2-((S)-1-(2-ethyl-6-(1-methyl-5-(((methyl(propyl)carbamoyl)oxy)methyl)-1H-1,2,3-triazol-4-yl)pyridin-3-yl)pyrrolidin-3-yl)butanoic acid] | 5 to 10000
4 | CCc1nc(-c2nnn(C)c2COc2nccc(C3CCC3)n2)ccc1[C@@H]1CCC[C@@H](CC(=O)O)O1 (single isomer, unassigned) [Example 22, 2-((2S,6S) or (2R,6R)-6-(6-(5-(((4-cyclobutylpyrimidin-2-yl)oxy)methyl)-1-methyl-1H-1,2,3-triazol-4-yl)-2-ethylpyridin-3-yl)tetrahydro-2H-pyran-2-yl)acetic acid] | < 0.1
5 | CCc1nc(-c2nnn(C)c2COc2nccc(C3CCC3)n2)ccc1[C@H]1CCC[C@H](CC(=O)O)O1 (single isomer, unassigned) [Example 23, 2-((2R,6R) or (2S,6S)-6-(6-(5-(((4-cyclobutylpyrimidin-2-yl)oxy)methyl)-1-methyl-1H-1,2,3-triazol-4-yl)-2-ethylpyridin-3-yl)tetrahydro-2H-pyran-2-yl)acetic acid] | 0.1 to 0.5
6 | CCCc1ccc(=O)n(Cc2c(-c3ccc([C@@H]4CCC[C@@H](CC(=O)O)O4)c(CC)n3)nnn2C)c1 (single isomer, unassigned) [Example 24, 2-((2S,6S) or (2R,6R)-6-(2-ethyl-6-(1-methyl-5-((2-oxo-5-propylpyridin-1(2H)-yl)methyl)-1H-1,2,3-triazol-4-yl)pyridin-3-yl)tetrahydro-2H-pyran-2-yl)acetic acid] | 0.5 to 5
7 | CCc1nc(-c2nnn(C)c2COc2nccc(C3CCC3)n2)ccc1C1CCOC(CC(=O)O)C1 (single isomer, unassigned) [Example 35, 2-(4-(6-(5-(((4-cyclobutylpyrimidin-2-yl)oxy)methyl)-1-methyl-1H-1,2,3-triazol-4-yl)-2-ethylpyridin-3-yl)tetrahydro-2H-223,423-pyran-2-yl)acetic acid] | < 0.1
8 | CCCc1ccc(=O)n(Cc2c(-c3ccc(C4CN(CC(=O)O)CC(F)(F)C4)c(C)n3)nnn2C)c1 (single isomer, unassigned) [Example 40, (R) or (S)-2-(3,3-difluoro-5-(2-methyl-6-(1-methyl-5-((2-oxo-5-propylpyridin-1(2H)-yl)methyl)-1H-1,2,3-triazol-4-yl)pyridin-3-yl)piperidin-1-yl)acetic acid] | 5 to 10000
9 | CCc1nc(-c2nnn(C)c2COc2nccc(C3CCC3)n2)ccc1N1CC[C@@H](CC(=O)O)C1 [Example 1, 2-[(3S)-1-[6-(5-{[(4-cyclobutylpyrimidin-2-yl)oxy]methyl}-1-methyl-1H-1,2,3-triazol-4-yl)-2-ethylpyridin-3-yl]pyrrolidin-3-yl]acetic acid] | < 0.1
10 | CCCc1ccc(=O)n(Cc2c(-c3ccc(N4CCC(CC(=O)O)C4)c(C)n3)nnn2C)c1 (stereo not drawn) [Example 2, 2-(1-(2-methyl-6-(1-methyl-5-((2-oxo-5-propylpyridin-1(2H)-yl)methyl)-1H-1,2,3-triazol-4-yl)pyridin-3-yl)pyrrolidin-3-yl)acetic acid] | 0.5 to 5
11 | Cc1nc(-c2nnn(C)c2COc2nccc(C3CCC3)n2)ccc1N1CCC(CC(=O)O)C1 (stereo not drawn) [Example 3, 2-(1-(6-(5-(((4-cyclobutylpyrimidin-2-yl)oxy)methyl)-1-methyl-1H-1,2,3-triazol-4-yl)-2-methylpyridin-3-yl)pyrrolidin-3-yl)acetic acid] | < 0.1
12 | CCc1nc(-c2nnn(C)c2COc2nccc(C3CCC3)n2)ccc1N1CC[C@H](CC(=O)O)C1 [Example 4, (R)-2-(1-(6-(5-(((4-cyclobutylpyrimidin-2-yl)oxy)methyl)-1-methyl-1H-1,2,3-triazol-4-yl)-2-ethylpyridin-3-yl)pyrrolidin-3-yl)acetic acid] | 0.1 to 0.5
13 | Cc1nc(-c2nnn(C)c2COc2cc(-n3cccn3)ncn2)ccc1N1CC[C@H](CC(=O)O)C1 [Example 7, (R)-2-(1-(6-(5-(((6-(1H-pyrazol-1-yl)pyrimidin-4-yl)oxy)methyl)-1-methyl-1H-1,2,3-triazol-4-yl)-2-methylpyridin-3-yl)pyrrolidin-3-yl)acetic acid] | 0.1 to 0.5
14 | CCc1nc(-c2nnn(C)c2COc2nccc(C3CCC3)n2)ccc1N1CC[C@H]([C@@H](C)C(=O)O)C1 [Example 9] | < 0.1

Results, then the compound that gave them:

Row | IC50 [µM] | SMILES
15 | < 0.1 | CCc1nc(-c2nnn(C)c2COc2nccc(C3CCC3)n2)ccc1[C@H]1CCC[C@@H](CC(=O)O)O1 (relative stereo) [Example 21, 2-(rel-(2S,6R)-6-(6-(5-(((4-cyclobutylpyrimidin-2-yl)oxy)methyl)-1-methyl-1H-1,2,3-triazol-4-yl)-2-ethylpyridin-3-yl)tetrahydro-2H-pyran-2-yl)acetic acid]
16 | 0.5 to 5 | CCCN(C)C(=O)OCc1c(-c2ccc(N3CC[C@@H](C(CC)C(=O)O)C3)c(CC)n2)nnn1C (single isomer, unassigned) [Example 20, (R) or (S)-2-((S)-1-(2-ethyl-6-(1-methyl-5-(((methyl(propyl)carbamoyl)oxy)methyl)-1H-1,2,3-triazol-4-yl)pyridin-3-yl)pyrrolidin-3-yl)butanoic acid]
17 | 0.5 to 5 | CCCN(C)C(=O)OCc1c(-c2ccc([C@@H]3CCC[C@@H](CC(=O)O)O3)c(CC)n2)nnn1C (single isomer, unassigned) [Example 25, 2-((2S,6S) or (2R,6R)-6-(2-ethyl-6-(1-methyl-5-(((methyl(propyl)carbamoyl)oxy)methyl)-1H-1,2,3-triazol-4-yl)pyridin-3-yl)tetrahydro-2H-pyran-2-yl)acetic acid]
18 | < 0.1 | CCc1nc(-c2nnn(C)c2COc2nccc(C3CCC3)n2)ccc1C1CCOC(CC(=O)O)C1 (single isomer, unassigned) [Example 34, 2-(4-(6-(5-(((4-cyclobutylpyrimidin-2-yl)oxy)methyl)-1-methyl-1H-1,2,3-triazol-4-yl)-2-ethylpyridin-3-yl)tetrahydro-2H-223,423-pyran-2-yl)acetic acid]
19 | < 0.1 | CCc1nc(-c2nnn(C)c2COc2nccc(C3CCC3)n2)ccc1C1CCOC(CC(=O)O)C1 (single isomer, unassigned) [Example 36, 2-(4-(6-(5-(((4-cyclobutylpyrimidin-2-yl)oxy)methyl)-1-methyl-1H-1,2,3-triazol-4-yl)-2-ethylpyridin-3-yl)tetrahydro-2H-223,423-pyran-2-yl)acetic acid]
20 | < 0.1 | CCc1nc(-c2nnn(C)c2COc2nccc(C3CCC3)n2)ccc1C1CCOC(CC(=O)O)C1 (single isomer, unassigned) [Example 37, 2-(4-(6-(5-(((4-cyclobutylpyrimidin-2-yl)oxy)methyl)-1-methyl-1H-1,2,3-triazol-4-yl)-2-ethylpyridin-3-yl)tetrahydro-2H-2λ^3,4λ^3-pyran-2-yl)acetic acid]
21 | 0.1 to 0.5 | CCCc1ccc(=O)n(Cc2c(-c3ccc(C4CN(CC(=O)O)CC(F)(F)C4)c(C)n3)nnn2C)c1 (single isomer, unassigned) [Example 41, (S) or (R)-2-(3,3-difluoro-5-(2-methyl-6-(1-methyl-5-((2-oxo-5-propylpyridin-1(2H)-yl)methyl)-1H-1,2,3-triazol-4-yl)pyridin-3-yl)piperidin-1-yl)acetic acid]
22 | 0.1 to 0.5 | Cc1nc(-c2nnn(C)c2COc2nccc(C3CCC3)n2)ccc1N1CC[C@H](CC(=O)O)C1 [Example 5, (R)-2-(1-(6-(5-(((4-cyclobutylpyrimidin-2-yl)oxy)methyl)-1-methyl-1H-1,2,3-triazol-4-yl)-2-methylpyridin-3-yl)pyrrolidin-3-yl)acetic acid]
23 | < 0.1 | Cc1nc(-c2nnn(C)c2COc2nccc(C3CCC3)n2)ccc1N1CC[C@@H](CC(=O)O)C1 [Example 6, (S)-2-(1-(6-(5-(((4-cyclobutylpyrimidin-2-yl)oxy)methyl)-1-methyl-1H-1,2,3-triazol-4-yl)-2-methylpyridin-3-yl)pyrrolidin-3-yl)acetic acid]
24 | < 0.1 | CCc1nc(-c2nnn(C)c2COc2nccc(C3CCC3)n2)ccc1N1CC[C@@H]([C@@H](C)C(=O)O)C1 [Example 8]

From patent US20250230140A1 (Viva Star Biosciences (Suzhou) Co., Ltd., priority 2021, published 2025)
